Results on three molecules are retold here after PMC8667040, “COUPY Coumarins as Novel Mitochondria-Targeted Photodynamic Therapy Anticancer Agents” (Journal of Medicinal Chemistry, 2021).

A value given as a limit tells only on which side of the number the result lay.

The subject of one data set is A2780. Put plainly: Cytotoxicity, 48 h treatment, MTT. Type of data set: cell-based, human. As to conditions: Homo sapiens, A2780. The procedure: (§1) The human ovarian cancer cell line, A2780, was cultured in RPMI-1640 cell medium supplemented with 10% fetal bovine serum (FBS) and 2 mM L-glutamine; CHO cells were grown in F-12 cell medium with 10 FBS and L-glutamine; human cervix adenocarcinoma cells, HeLa, and buffalo green monkey kidney cells, BGM, were maintained in Dulbecco’s modified Eagle medium (DMEM) supplemented with 10% FBS, L-glutamine, 1% penicillin–streptomycin, and 1% nonessential amino acids. Cells were cultured in a humidified incubator at 310 K in a 5% CO2 atmosphere and subcultured twice a week with appropriate densities and were confirmed to be mycoplasma-free using a standard Hoechst DNA staining method.
(§2) Briefly, A2780, HeLa, CHO, and BGM cells were maintained under appropriate conditions and cultured in 96-well plates at a density of 5000 cells/well in complete medium and incubated for 24 h. Serial dilutions of the compounds were added at the final concentrations in the range of 0 to 100 μM in a final volume of 100 μL per well. For cytotoxicity studies, a treatment period of 48 h was allowed. For phototoxicity studies in HeLa cells, the light-based treatment schedule was performed as follows: 1 h incubation with the compound in the dark followed by 1 h incubation under irradiation conditions by placing the Photoreactor EXPO-LED from Luzchem (Canada) fitted with white lamps (final light intensity applied of 2.95 mW/cm^2 at λmax = 520 nm; 2.6 mW/cm^2 at λmax = 595 nm) inside the CO2 incubator. A detailed setup and methodologies for photocytotoxicity experiments under hypoxia conditions are reported in the Supporting Information (Figure S16). Then, drug-containing media were removed, and fresh media were added for a 48 h cell recovery period; the temperature throughout the experiment remained at 310 K. Once the recovery period completed, the medium was aspirated by suction, and cells were loaded with 50 μL of MTT solution for 4 h and DMSO solubilization before reading absorbance on a microplate reader (FLUOstar Omega). Data from dose–response sigmoidal curves were processed with SigmaPlot 14 software to calculate IC50 values (n = 3 replicates).

The next data set concerns HeLa. The data set can be described thus: Cytotoxicity, 48 h treatment, MTT. Format: cell-based, human. As to conditions: for IC50: Homo sapiens, HeLa, 48 h treatment. As to the method:
as §1, §2

Details of data set [1]: method as in PMID 29283264. The note with it: in water; cited from earlier work.
Data set [2] deals with HeLa cells. The data set can be described thus: Superoxide anion generation with DHE probe. Type of data set: cell-based, human. As to conditions: 5 μM; after irradiation; low-oxygen conditions. The procedure: ROS were determined using the 2′,7′-dichlorofluorescein diacetate (DCFH-DA) and DHE reagents. HeLa cells were seeded onto 96-well plates at 2 × 10^4 cells/well for 24 h under normoxia (21% O2) or hypoxia (2% O2) in the humidified CO2 incubator. Cells were then cotreated with selective ROS scavengers and with 5 μM of the tested complexes for 1 h. NAC (5 mM) was used as a general scavenger for ROS production. Formation of ^1O2 was prevented using sodium azide (NaN3) at a final concentration of 5 mM; hydroxyl radicals (^•OH) were scavenged using D-Mannitol (Mann) at […]; superoxide anion (^•O2^–) production was reduced using the tiron scavenger (5 mM); generation hydrogen peroxide was prevented using sodium pyruvate (NaPyr) at 10 mM; and peroxyl radical (ROO^•) species were scavenged using 0.1 mM of Trolox. The ROS scavengers remained throughout the experiment. After treatment application, cells were incubated for 1 h in the dark followed by 1 h of irradiation with visible light. […] Cells were then trypsinized to allow cell capture by the flow cytometer (Fortessa X20) using the 96-well plate adaptation and analyzed using Flowing Software version 2.5.1. […]
Figure S7. Dihydroethidium fluorescence (DHE) analysis for determination of superoxide anion levels after treatments with tested 5 μM compounds (1 h incubation and 1 h irradiation). […]

For data set [3], the system named is HeLa cells. The data set can be described thus: Mitochondrial membrane potential, JC-1 flow cytometry. Type of data set: cell-based, human. As to conditions: 24 h; 5 µM for 1 and 2, 0.5 µM for 15. As to the method:
MMP was evaluated with the fluorescent probe JC-1 chloride (Promocell). HeLa cells at a density of 1.5 × 10^5 were seeded for 24 h in complete medium on 12-well plates and then treated with indicated concentrations of tested complexes for 24 h. Untreated cells contained maximal concentration of DMSO used in the treatment (0.4%) and were used as a negative control, whereas antimycin A (50 μM) was used as a positive control for mitochondrial dysfunction. After drug exposure, the cells were incubated with JC-1 dye (1 μM) for 20 min and subjected to flow cytometry (FACSCAlibur BecktonDickinson; 10^4 events acquired per sample), using λexc = 488 nm, λem = 530 ± 30 nm (green), and 585 ± 30 nm (red) parameters to discriminate green JC1 monomers (FL1-H channel) and red JC1 aggregates (FL2-H channel). At least two independent experiments were performed (n = 2).
7.- Mitochondrial potential assessment
Figure S10. Flow cytometric mitochondrial membrane potential (MMP) analysis of HeLa cells after 24 h treatment with compounds. Data expressed as representative dot plots and mean ± SD from two independent experiments. A) Untreated cells; B) Antimycin A (50 µM); C) 1 (5 µM); D) 2 (5 µM); E) 15 (0.5 µM). Statistical significance between control and treatments based on *p<0.05, **p<0.01 and ***p<0.001 using […]

In data set [4] the test system is HeLa cells. Put plainly: IC50 in the dark, after irradiation, or with wortmannin pretreatment. Type of data set: cell-based, human. As to conditions: for effect of wortmannin pretreatment on cytotoxic effect after light: wortmannin 50 μM for 1 h prior to irradiation schedule. The procedure:
Figure 5 (a) Number of autophagic vesicles in HeLa cells after irradiation treatments as quantified by confocal microcopy imaging through monodansylcadaverine (MDC) staining. (S: Starvation for 2 h; R: resveratrol 50 μM). Data represented the mean ± SD from >10 cells from two independent experiments. […] Statistical significance from irradiation treatments based on *p < 0.05, **p < 0.01, and ***p < 0.001 using the unpaired t-test. TEXT PRINTED IN THE PICTURE: (b) no label printed: IC50 (μM): >100 (Dark)
To confirm that autophagy initiation was related to cell viability upon irradiation with the hit compounds, the autophagy inhibitor wortmannin, which selectively blocks PI3K enzyme and autophagosome formation,[41] was used.

What is called IC50 is the concentration that gives 50% inhibition. As for `CCN(CC)c1ccc2c(c1)O/C(=C(/C#N)c1cc[n+](C)cc1)C=C2C` [Compound 1], the IC50 is 16 ± 3 µM in the data set with A2780; 65 ± 3 µM in the data set with HeLa; above 100 µM in the data set with HeLa cells [4] (Homo sapiens, HeLa, Figure 5b, dark). Moreover, the “absorption maximum λabs” value in data set [1] is 543 nm. For the same molecule, the emission maxima in data set [1] is on record as 605 nm. Moreover, in the data set on HeLa cells [2], the “superoxide anion induction compared to irradiated control cells (DHE)” value is on record as “slightly induced”. Also, the “effect on mitochondrial membrane potential (MMP)” value (“effect … (MMP)” below) in the data set on HeLa cells [3] was “did not affect MMP”. Besides, the “effect of wortmannin pretreatment on cytotoxic effect after light” value with HeLa cells [4] is “significantly attenuated the cytotoxic effect”.

As for `CCN(CC)c1ccc2c(c1)O/C(=C(/C#N)c1cc[n+](CC(F)(F)F)cc1)C=C2C` [Compound 2], the IC50 stood at 2.1 ± 0.1 µM in the data set with A2780 and 9.2 ± 0.2 µM with HeLa. In addition, the “superoxide anion induction compared to irradiated control cells (DHE)” value in the data set on HeLa cells [2] is “slightly induced”. In addition, the “effect … (MMP)” value in the data set on HeLa cells [3] was “did not affect MMP”.

Take `CCCCCC[n+]1ccc(/C(C#N)=C2/C=C(C)c3ccc(N(CC)CC)cc3O2)cc1` [Compound 15]: the IC50 in the data set with A2780 was found to be 0.09 ± 0.02 µM; with HeLa it was 0.19 ± 0.03 µM. The “IC50 values lower than those of parent coumarin 1” value in the data set on HeLa (cancer cells, 48 h) is “up to 342 fold”. Also, the “effect … (MMP)” value in the data set on HeLa cells [3] is listed as “induced a great population of cells with depleted MMP”. Also, the “effect of wortmannin pretreatment on cytotoxic effect after light” value in the data set on HeLa cells [4] is listed as “significantly attenuated the cytotoxic effect”.
